Measurements as given in publication PMC7914897, “Cytotoxic Potential of a-Azepano- and 3-Amino-3,4-SeCo-Triterpenoids” (International Journal of Molecular Sciences, 2021).
Where two headings read alike, the source gives them in different places.

Columns and labels:
[1] = test system: LOX IMVI (Melanoma); test: NCI-60 screen (SRB, 48 h); type: cell-based; conditions: Homo sapiens
[2] = test system: BT-549 (Breast cancer); test: NCI-60 screen (SRB, 48 h); type: cell-based; conditions: Homo sapiens
[3] = test system: Leukemia subpanel; test: cells; conditions: Homo sapiens
[4] = test system: OVCAR-3 (Ovarian cancer); test: cells; conditions: Homo sapiens
[5] = test system: Colon Cancer subpanel; test: NCI-60 screen, subpanel; conditions: Homo sapiens
[6] = test system: Melanoma subpanel; test: NCI-60 screen, subpanel; conditions: Homo sapiens
[7] = test system: Prostate cancer subpanel; test: NCI-60 screen, subpanel; conditions: Homo sapiens
[8] = test system: Breast cancer subpanel; test: NCI-60 screen, subpanel; conditions: Homo sapiens
[9] = test system: CCRF-CEM (Leukemia); test: NCI-60 screen (SRB, 48 h); conditions: Homo sapiens
[10] = test system: K-562 (Leukemia); test: NCI-60 screen (SRB, 48 h); conditions: Homo sapiens
[11] = test system: A549/ATCC (NSC lung cancer); test: NCI-60 screen (SRB, 48 h); conditions: Homo sapiens
[12] = test system: NCI-H23 (NSC lung cancer); test: NCI-60 screen (SRB, 48 h); conditions: Homo sapiens
[13] = test system: NCI-H322M (NSC lung cancer); test: NCI-60 screen (SRB, 48 h); conditions: Homo sapiens
[14] = test system: HCT-15 (Colon cancer); test: NCI-60 screen (SRB, 48 h); conditions: Homo sapiens
[15] = test system: HT29 (Colon cancer); test: NCI-60 screen (SRB, 48 h); conditions: Homo sapiens
[16] = test system: U251 (CNS cancer); test: NCI-60 screen (SRB, 48 h); conditions: Homo sapiens
[17] = test system: SK-MEL-2 (Melanoma); test: NCI-60 screen (SRB, 48 h); conditions: Homo sapiens
[18] = test system: SK-MEL-28 (Melanoma); test: NCI-60 screen (SRB, 48 h); conditions: Homo sapiens
[19] = test system: UACC-257 (Melanoma); test: NCI-60 screen (SRB, 48 h); conditions: Homo sapiens
[20] = test system: IGROV1 (Ovarian cancer); test: NCI-60 screen (SRB, 48 h); conditions: Homo sapiens
[21] = test system: NCI/ADR-RES (Ovarian cancer); test: NCI-60 screen (SRB, 48 h); conditions: Homo sapiens
[22] = test system: SN12C (Renal cancer); test: NCI-60 screen (SRB, 48 h); conditions: Homo sapiens
[23] = test system: UO-31 (Renal cancer); test: NCI-60 screen (SRB, 48 h); conditions: Homo sapiens
[24] = test system: DU-145 (Prostate cancer); test: NCI-60 screen (SRB, 48 h); conditions: Homo sapiens
[25] = test system: MDA-MB-31/ATCC (Breast cancer); test: NCI-60 screen (SRB, 48 h); conditions: Homo sapiens
[26] = test system: HS 578T (Breast cancer); test: NCI-60 screen (SRB, 48 h); conditions: Homo sapiens
[27] = test system: panel of approximately 60 cancer cell lines; test: NCI-60 screen (SRB, 48 h), full panel

C=C(C)[C@@H]1CC[C@]2(C)[C@H](CC=C3[C@@H]4[C@@H](C)[C@H](C)CC[C@]4(CO)CC[C@]32C)[C@@]1(C)CCCN [Compound 19]
IC (TGI) ([1]; 48 h): 1570 nM | activity at 10 µM ([1]; 48 h, 1 dose 10 µM, read-out: Growth % of the Most Sensitive Cell Lines): -99% | GI50 ([1]; read-out: GI50): 860 nM | CC50 ([1]; read-out: LC50 (the source's name)): 2860 nM | GI50 ([2]; BT-549): 2560 nM | IC (TGI) ([2]; BT-549, 48 h): 9230 nM | CC50 ([2]; BT-549, read-out: LC50 (the source's name)): 23300 nM | IC (TGI) ([3]; 48 h, read-out: TGI MG_MID): 3810 nM | GI50 ([3]; read-out: GI50 MG_MID): 1230 nM | CC50 ([3]; read-out: LC50 MG_MID): 33200 nM | GI50 ([4]; OVCAR-3): 930 nM | IC (TGI) ([4]; OVCAR-3, 48 h, read-out: TGI): 1790 nM | CC50 ([4]; OVCAR-3, read-out: LC50): 3440 nM | IC (TGI) ([5]; 48 h, read-out: TGI MG_MID): 1800 nM | GI50 ([5]; read-out: GI50 MG_MID): 900 nM | CC50 ([5]; read-out: LC50 MG_MID): 3630 nM | IC (TGI) ([6]; 48 h, read-out: TGI MG_MID): 3300 nM | GI50 ([6]; read-out: GI50 MG_MID): 1540 nM | CC50 ([6]; read-out: LC50 MG_MID): 7680 nM | IC (TGI) ([7]; 48 h, read-out: TGI MG_MID): 5250 nM | GI50 ([7]; read-out: GI50 MG_MID): 1430 nM | CC50 ([7]; read-out: LC50 MG_MID): 18600 nM | IC (TGI) ([8]; 48 h, read-out: TGI MG_MID): 3620 nM | GI50 ([8]; read-out: GI50 MG_MID): 1280 nM | CC50 ([8]; read-out: LC50 MG_MID): 16900 nM | GI50 [9]: 1310 nM | IC (TGI) ([9]; 48 h, read-out: TGI): 5260 nM | CC50 ([9]; read-out: LC50): > 50000 nM | GI50 ([10]; K562): 1220 nM | IC (TGI) ([10]; K562, 48 h, read-out: TGI): 3630 nM | CC50 ([10]; K562, read-out: LC50): > 50000 nM | GI50 ([11]; A549): 1590 nM | IC (TGI) ([11]; A549, 48 h, read-out: TGI): 5110 nM | CC50 ([11]; A549, read-out: LC50): > 50000 nM | GI50 ([12]; NCI-H23): 1340 nM | IC (TGI) ([12]; NCI-H23, 48 h, read-out: TGI): 4000 nM | CC50 ([12]; NCI-H23, read-out: LC50): 17500 nM | GI50 [13]: 1740 nM | IC (TGI) ([13]; 48 h, read-out: TGI): 6380 nM | CC50 ([13]; read-out: LC50): 18600 nM | GI50 ([14]; HCT-15): 840 nM | IC (TGI) ([14]; HCT-15, 48 h, read-out: TGI): 1760 nM | CC50 ([14]; HCT-15, read-out: LC50): 3690 nM | GI50 ([15]; HT-29): 990 nM | IC (TGI) ([15]; HT-29, 48 h, read-out: TGI): 2040 nM | CC50 ([15]; HT-29, read-out: LC50): 4220 nM | GI50 ([16]; U-251): 920 nM | IC (TGI) ([16]; U-251, 48 h, read-out: TGI): 1820 nM | GI50 ([17]; SK-MEL-2): 1730 nM | IC (TGI) ([17]; SK-MEL-2, 48 h, read-out: TGI): 5040 nM | CC50 ([17]; SK-MEL-2, read-out: LC50): 18500 nM | GI50 ([18]; SK-MEL-28): 950 nM | IC (TGI) ([18]; SK-MEL-28, 48 h, read-out: TGI): 1670 nM | CC50 ([18]; SK-MEL-28, read-out: LC50): 2940 nM | GI50 ([19]; UACC-257): 1070 nM | IC (TGI) ([19]; UACC-257, 48 h, read-out: TGI): 2210 nM | CC50 ([19]; UACC-257, read-out: LC50): 4680 nM | GI50 ([20]; IGROV-1): 890 nM | IC (TGI) ([20]; IGROV-1, 48 h, read-out: TGI): 1670 nM | CC50 ([20]; IGROV-1, read-out: LC50): 3140 nM | GI50 [21]: 990 nM | IC (TGI) ([21]; 48 h, read-out: TGI): 2170 nM | CC50 ([21]; read-out: LC50): 4770 nM | GI50 [22]: 840 nM | IC (TGI) ([22]; 48 h, read-out: TGI): 1670 nM | CC50 ([22]; read-out: LC50): 3340 nM | GI50 ([23]; UO-31): 820 nM | IC (TGI) ([23]; UO-31, 48 h, read-out: TGI): 2240 nM | CC50 ([23]; UO-31, read-out: LC50): 9640 nM | GI50 ([24]; DU-145): 1210 nM | IC (TGI) ([24]; DU-145, 48 h, read-out: TGI): 3010 nM | CC50 ([24]; DU-145, read-out: LC50): 11300 nM | GI50 [25]: 960 nM | IC (TGI) ([25]; 48 h, read-out: TGI): 1710 nM | CC50 ([25]; read-out: LC50): 3040 nM | GI50 [26]: 990 nM | IC (TGI) ([26]; 48 h, read-out: TGI): 2230 nM | CC50 ([26]; read-out: LC50): 5000 nM | Positive Cytostatic Effect (cell lines with percent growth 0 to 50 / total) ([27]; 1 dose 10 µM): 20/60 | Positive Cytotoxic Effect (cell lines with percent growth < 0 / total) ([27]; 1 dose 10 µM): 28/60 | number of cancer cell lines the compound was active against ([27]; 1 dose 10 µM): 45 cell lines | activity at 10 µM ([27]; Homo sapiens, 48 h, read-out: Mean Growth, %): -4.29% | activity at 10 µM ([27]; Homo sapiens, 48 h, read-out: Range of Growth, %): -99 to 84.5% | IC (TGI) ([27]; Homo sapiens, 48 h, read-out: TGI MG_MID60, average over all cell lines): 3890 nM | GI50 ([27]; Homo sapiens, read-out: GI50 MG_MID60): 1420 nM | GI50 ([27]; Homo sapiens, read-out: GI50 against all human tumor cell lines): < 10000 nM | GI50 ([27]; Homo sapiens, read-out: GI50 against the most sensitive cell lines): 200 to 940 nM | CC50 ([27]; Homo sapiens, read-out: LC50 MG_MID60, average over all cell lines): 17000 nM
